Assay: stability of compositions (lasting white color, no yellowing over time)
Type: physicochemical
Settings: particularly in a stick product form
Description: This is evidenced by a lasting white color of the present compositions, without the manifestation of yellowing over time, particularly in a stick product form. The present compositions can also be in other cosmetic product forms, such as, for example, an emulsion, a gel, a lip balm, a lip gloss, a lipstick, a lotion, a mask, an ointment, a patch, a pomade, a solution, a spray, or a towelette.

For `CC(C=CC1=C(C)CCCC1(C)C)=CC=CC(C)=CCO[Si](C)(C)C` [retinoxytrimethylsilane], the “stability of compositions compared to prior art” value was “more stable compositions than those of the prior art”.
